This passage reports response vs control in vivo and MIC results from US5166204A, “Isoindole derivatives and salts thereof and antitumor agent comprising the same” (Toyama Chemical Co., Ltd., priority 1989, dated 1992).

One experiment has as its system Ehrlich solid cancer. The experiment is described as follows: Effect on Ehrlich solid cancer (tumor weight in mice). Type of experiment: in vivo, ddY strain mice. As to conditions: Mus musculus, iv, 240 h; for response vs control in vivo at 50 mg/kg: 50 mg/kg i.v.; for response vs control in vivo at 7 mg/kg: 7 mg/kg i.v.; for response vs control in vivo at 10 mg/kg: 10 mg/kg i.v.; for response vs control in vivo at 14 mg/kg: 14 mg/kg i.v. On the procedure:
(c) Effect on Ehrlich Solid Cancer 5×10^6 Ehrlich cells were transplanted to ddY strain mice in groups of 7 members (male, 5-week old, weight=about 25 g) subcutaneously at the left groin on day 0. […] Only the aqueous 5% glucose solution was administered to the control group. […] From the (a) and (b) was calculated T/C (%), using the following equation: T/C (%)=(a/b)×100

A further experiment concerns L-1210 ascites tumor. The experiment is described as follows: Effect on L-1210 ascites tumor (survival of tumor-transplanted mice). Type of experiment: in vivo, CDF1 strain mice. Conditions: Mus musculus, L1210, ip, 720 h, survival observed 30 days, read-out: prolongation of survival time T/C; for response vs control in vivo at 25 mg/kg: 25 mg/kg i.p.; for response vs control in vivo at 5 mg/kg: 5 mg/kg i.p.; for response vs control in vivo at 1 mg/kg: 1 mg/kg i.p. How it is done: (b) Effect on L-1210 Ascites Tumor
1×10^5 L-1210 cells were intraperitoneally transplanted to CDF1 strain mice in groups of 6 members (male, 5-week old, weight =about 25 g) on day 0. A test compound dissolved in an aqueous 5% glucose solution was intraperitoneally administered to the test group of the above mice twice on day 1 and day 5. Only the aqueous 5% glucose solution was administered to the control group. Incidentally, the 25 mg/kg administration of the test compound No. 30 was effected only once on day 1. There were examined (a) the average survival days of the test group and (b) the average survival days of the control group. The examination period for survival days was 30 days. From the (a) and (b) was calculated a prolongation of survival time [T/C (%)], using the following equation: […]

The subject of a further experiment is HeLa S-3 cells. The experiment is described as follows: HeLa S-3 cell growth inhibition test. The class given is cell-based. As to conditions: Homo sapiens, 96 h; HeLa S-3 cells, 37° C., 4 days, Giemsa's staining; read-out: minimum growth inhibition concentration (MIC). On the procedure: (a) HeLa S-3 Cell Growth Inhibition Test
A test compound was appropriately diluted with a liquid medium (a minimum essential medium containing a 10% fecal calf serum). The resulting liquid was poured into each well of a 96-well micro titer plate, in an amount of 0.1 ml/well. Then, HeLa S-3 cells were diluted with the same liquid medium so that the cell concentration became 2×10^4 cells/ml, and the resulting liquid was poured into each well of the above plate in an amount of 0.1 ml/well. The resulting plate was allowed to stand in a CO2 gas incubator of 37° C. for 4 days, to effect incubation. After the incubation, the supernatant liquid in each well was removed and fixation by ethanol was effected for 10 minutes. The fixed cells were tinted with a Giemsa's staining solution to determine the minimum growth inhibition concentration (MIC) of test compound for HeLa S-3 cells.

Setting [1] is: only once on day 1, day 10, read-out: T/C (average tumor weight, treated/control).
Setting [2] is: twice on day 1 and day 5, day 10, read-out: T/C (average tumor weight, treated/control).

≈ marks a conversion by molar mass, not a printed value. Structures can show the parent of a compound that is named as a salt. Where two headings read alike, the source gives them in different places.

For `CN(C)CCN1C(=O)c2ccc3[nH]c4ccccc4c3c2C1=O` [compound 1], the response vs control in vivo at 50 mg/kg in the experiment on Ehrlich solid cancer (daily for six consecutive days (day 1 to 6), day 10, read-out: T/C (average tumor weight, treated/control)) is 18%. Besides, the response vs control in vivo at 25 mg/kg with L-1210 ascites tumor (twice on day 1 and day 5) worked out at 137%. In the experiment on HeLa S-3 cells, the MIC was found to be 3.13 µg/mL (≈ 10.2 µM).
As for `Cc1cc2c(c3c1[nH]c1ccccc13)C(=O)N(CCN(C)C)C2=O` [compound 2], in the experiment on L-1210 ascites tumor (twice on day 1 and day 5), the response vs control in vivo at 5 mg/kg is 180%. Moreover, the MIC in the experiment on HeLa S-3 cells was 0.16 µg/mL (≈ 0.498 µM).
For the compound `Cc1cc2[nH]c3ccccc3c2c2c1C(=O)N(CCN(C)C)C2=O` [compound 3], the response vs control in vivo at 25 mg/kg in the experiment on L-1210 ascites tumor (twice on day 1 and day 5) was 167%. In addition, the MIC in the experiment with HeLa S-3 cells was determined as 0.1 µg/mL (≈ 0.311 µM).
`CN(C)CCN1C(=O)c2ccc3[nH]c4ccc(Cl)cc4c3c2C1=O` [compound 9]: in the experiment on L-1210 ascites tumor (twice on day 1 and day 5), the response vs control in vivo at 25 mg/kg was determined as 131%. Moreover, the MIC with HeLa S-3 cells came out at 3.13 µg/mL (≈ 9.16 µM).
For the compound `COc1ccc2[nH]c3ccc4c(c3c2c1)C(=O)N(CCN(C)C)C4=O` [compound 15], the response vs control in vivo at 25 mg/kg with L-1210 ascites tumor (twice on day 1 and day 5) was 160%. The MIC in the experiment on HeLa S-3 cells is 3.13 µg/mL (≈ 9.28 µM).
Take `COc1ccc2[nH]c3cc(C)c4c(c3c2c1)C(=O)N(CCN(C)C)C4=O` [compound 17]: in the experiment on L-1210 ascites tumor (twice on day 1 and day 5), the response vs control in vivo at 5 mg/kg is 126% and the response vs control in vivo at 25 mg/kg worked out at 129%. For the same compound, in the experiment on HeLa S-3 cells, the MIC was 0.16 µg/mL (≈ 0.455 µM).
In the case of `CN(C)CCN1C(=O)c2ccc3[nH]c4cc5c(cc4c3c2C1=O)OCO5` [compound 22], in the experiment on L-1210 ascites tumor (twice on day 1 and day 5), the response vs control in vivo at 5 mg/kg was 143% and the response vs control in vivo at 25 mg/kg turned out to be 160%. Also, in the experiment on HeLa S-3 cells, the MIC was determined as 0.16 µg/mL (≈ 0.455 µM).
On to `CN(C)CCN1C(=O)c2ccc3[nH]c4ccc(O)cc4c3c2C1=O.Cl` [compound 23, N-(2-dimethylaminoethyl)-6-hydroxycarbazole-3,4-dicarboximide hydrochloride], for which the response vs control in vivo at 15 mg/kg in the experiment with Ehrlich solid cancer (15 mg/kg i.v., twice on day 1 and day 5, day 10, read-out: T/C (average tumor weight, treated/control)) turned out to be 10%. Further, in the experiment with L-1210 ascites tumor (twice on day 1 and day 5), the response vs control in vivo at 1 mg/kg is 128% and the response vs control in vivo at 5 mg/kg was greater than 272%. The MIC with HeLa S-3 cells is 0.8 µg/mL.
As to `Cc1cc2c(c3c1[nH]c1ccc(O)cc13)C(=O)N(CCN(C)C)C2=O.Cl` [compound 24, N-(2-dimethylaminoethyl)-6-hydroxy-1-methylcarbazole-3,4-dicarboximide hydrochloride], the response vs control in vivo at 5 mg/kg in the experiment on Ehrlich solid cancer (5 mg/kg i.v., twice on day 1 and day 5, day 10, read-out: T/C (average tumor weight, treated/control)) was found to be 12%. Also, in the experiment on L-1210 ascites tumor (twice on day 1 and day 5), the response vs control in vivo at 1 mg/kg is greater than 377%. The MIC with HeLa S-3 cells was determined as 0.125 µg/mL.
Turning to `CN(C)CCN1C(=O)c2cc(-c3ccccc3)c3[nH]c4ccc(O)cc4c3c2C1=O` [compound 27], in the experiment with Ehrlich solid cancer (30 mg/kg i.v., twice on day 1 and day 5, day 10, read-out: T/C (average tumor weight, treated/control)), the response vs control in vivo at 30 mg/kg amounted to 15%. The MIC in the experiment with HeLa S-3 cells came to 0.31 µg/mL (≈ 0.776 µM).
With `CN(C)CCN1C(=O)c2ccc3[nH]c4cc(O)ccc4c3c2C1=O` [compound 28], in the experiment with L-1210 ascites tumor (twice on day 1 and day 5), the response vs control in vivo at 5 mg/kg is 176% and the response vs control in vivo at 25 mg/kg was 379%. Besides, the MIC with HeLa S-3 cells was determined as 0.8 µg/mL (≈ 2.47 µM).
Consider `CN(C)CCN1C(=O)c2ccc3c(c2C1=O)c1cc(O)ccc1n3C` [compound 30], for which, in the experiment on L-1210 ascites tumor (twice on day 1 and day 5), the response vs control in vivo at 5 mg/kg was 156%. Further, the response vs control in vivo at 25 mg/kg in the experiment with L-1210 ascites tumor (only once on day 1) was 172%. Besides, in the experiment with HeLa S-3 cells, the MIC came out at 0.1 µg/mL (≈ 0.296 µM).
`CN(C)CCN1C(=O)c2ccc3[nH]c4cc(O)c(O)cc4c3c2C1=O` [compound 31]: the response vs control in vivo at 50 mg/kg in the experiment with Ehrlich solid cancer (setting [1]) amounted to 31%. Besides, in the experiment with L-1210 ascites tumor (twice on day 1 and day 5), the response vs control in vivo at 5 mg/kg was determined as 176%.
Consider `CN(C)CCN1C(=O)c2cc(Cl)c3[nH]c4ccc(O)cc4c3c2C1=O` [compound 32], for which the response vs control in vivo at 25 mg/kg with Ehrlich solid cancer (25 mg/kg i.v., only once on day 1, day 10, read-out: T/C (average tumor weight, treated/control)) came to 9%. For the same compound, in the experiment with HeLa S-3 cells, the MIC was 0.31 µg/mL (≈ 0.866 µM).
Take `COc1cc2c(c3c1[nH]c1ccc(O)cc13)C(=O)N(CCN(C)C)C2=O` [compound 38]: in the experiment on Ehrlich solid cancer (setting [2]), the response vs control in vivo at 7 mg/kg came out at 12%. Further, the MIC in the experiment on HeLa S-3 cells amounted to 0.06 µg/mL (≈ 0.17 µM).
In the case of `CCc1cc2c(c3c1[nH]c1ccc(O)cc13)C(=O)N(CCN(C)C)C2=O` [compound 39], in the experiment with Ehrlich solid cancer (setting [2]), the response vs control in vivo at 10 mg/kg is 20%. In the experiment on HeLa S-3 cells, the MIC worked out at 0.04 µg/mL (≈ 0.114 µM).
Take `CCN(CC)CCN1C(=O)c2cc(C)c3[nH]c4ccc(O)cc4c3c2C1=O.Cl` [compound 42, N-(2-diethylaminoethyl)-6-hydroxy-1-methylcarbazole-3,4-dicarboximide hydrochloride]: the response vs control in vivo at 7 mg/kg in the experiment with Ehrlich solid cancer (setting [2]) is 18%. In addition, the MIC in the experiment on HeLa S-3 cells worked out at 0.063 µg/mL.
In the case of `CN(C)CCN1C(=O)c2cc(C3CC3)c3[nH]c4ccc(O)cc4c3c2C1=O` [compound 49, N-(2-dimethylaminoethyl)-1-cyclopropyl-6-hydroxycarbazole-3,4-dicarboximidehydrochloride], the response vs control in vivo at 14 mg/kg in the experiment on Ehrlich solid cancer (setting [2]) is 19%. In the experiment with HeLa S-3 cells, the MIC stood at 0.2 µg/mL.
In the case of `CN(C)CCN1C(=O)c2cc(C3CCC3)c3[nH]c4ccc(O)cc4c3c2C1=O.Cl` [compound 59, N-(2-dimethylaminoethyl)-1-cyclobutyl-6-hydroxycarbazole-3,4-dicarboximide hydrochloride], the response vs control in vivo at 14 mg/kg with Ehrlich solid cancer (setting [2]) came out at 12%. The MIC in the experiment with HeLa S-3 cells came out at 0.16 µg/mL.
With `Cc1cc2c(c3c1sc1ccc(O)cc13)C(=O)N(CCN(C)C)C2=O` [compound 61], in the experiment on Ehrlich solid cancer (setting [1]), the response vs control in vivo at 10 mg/kg is 27%. For the same compound, the MIC in the experiment with HeLa S-3 cells turned out to be 0.08 µg/mL (≈ 0.226 µM).
As for `CNCCN1C(=O)c2cc(C)c3[nH]c4ccc(O)cc4c3c2C1=O` [compound 69], the response vs control in vivo at 10 mg/kg with Ehrlich solid cancer (setting [2]) was 19%. Further, the MIC with HeLa S-3 cells is 0.25 µg/mL (≈ 0.773 µM).
For the compound `CCN(CC)CCN1C(=O)c2cc(OC)c3[nH]c4ccc(O)cc4c3c2C1=O.Cl` [compound 70, N-(2-diethylaminoethyl)-6-hydroxy-1-methoxycarbazole-3,4-dicarboximide hydrochloride], the response vs control in vivo at 10 mg/kg with Ehrlich solid cancer (setting [2]) is 18%. In addition, in the experiment on HeLa S-3 cells, the MIC came to 0.16 µg/mL.
Take `CCNCCN1C(=O)c2cc(C)c3[nH]c4ccc(O)cc4c3c2C1=O` [compound 71]: the response vs control in vivo at 10 mg/kg in the experiment on Ehrlich solid cancer (setting [2]) turned out to be 16%. In the experiment on HeLa S-3 cells, the MIC stood at 0.16 µg/mL (≈ 0.474 µM).
As for `CC1CC1c1cc2c(c3c1[nH]c1ccc(O)cc13)C(=O)N(CCN(C)C)C2=O` (stereo not shown) [compound 74], the response vs control in vivo at 10 mg/kg in the experiment on Ehrlich solid cancer (setting [2]) was 19%. Moreover, the MIC with HeLa S-3 cells was determined as 0.16 µg/mL (≈ 0.424 µM).
Consider `CN(C)CCN1C(=O)c2cc3[nH]c4cccc(F)c4c3cc2C1=O` [compound 96], for which the MIC in the experiment on HeLa S-3 cells was determined as 6.25 µg/mL (≈ 19.2 µM).
The same measure, in the same setting: the value for `Cc1c2c(cc3c1[nH]c1ccccc13)C(=O)N(CCN(C)C)C2=O` [compound 97] was 3.13 µg/mL (≈ 9.74 µM); that for `Cc1c2c(c(C)c3c1[nH]c1ccccc13)C(=O)N(CCN(C)C)C2=O` [compound 98] was 0.8 µg/mL (≈ 2.39 µM); that for `COc1ccc2[nH]c3c(C)c4c(c(C)c3c2c1)C(=O)N(CCN(C)C)C4=O` [compound 99] was 0.8 µg/mL (≈ 2.19 µM).
Turning to `Cc1c2c(c(C)c3c1[nH]c1ccc(O)cc13)C(=O)N(CCN(C)C)C2=O` [compound 100], the MIC with HeLa S-3 cells came out at 2.5 µg/mL (≈ 7.11 µM).
